Holding throughout (assay): NCI-60 cell line screen, 48 h
The subject of test [1] is OVCAR-4 ovarian.
The subject of test [2] is HCC-2998 colon.
For test [3], the system named is OVCAR-3 ovarian.
In test [4] the test system is KM12 colon.
Test [5] deals with SW-620 colon.
Test [6] has as its system HOP-62 NSCLC.
For test [7], the system named is M14 melanoma.
Test [8] concerns HCT-116 colon.
For test [9], the system named is ACHN renal.
The test system of test [10] is NCI-H23 lung.

For 9 compounds, GI50 and TGI results are on record in PubChem BioAssay (NCI).

The structures appear in SMILES notation.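 Grown in 96-well plates, cells were treated for 48 hours with each compound at five concentrations. Insufficient inhibition: endpoint recorded as highest concentration tested. The concentration for 50% growth inhibition is given as GI50. TGI: total growth inhibition.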

For the compound `CC1(C)N=C(N)N=C(N)N1c1ccc(OCCCCNC(=O)c2ccc(S(=O)(=O)F)cc2)c(Cl)c1`, the GI50 in [1] was 93.7 µM; in test [2], 35 µM; in test [3], 50.4 µM; in test [4], 8.04 µM; in [5], 3.51 µM; in [6], 68.3 µM. In addition, the GI50 was 8.89 µM in [7], 3.53 µM in test [8] and 41.6 µM in test [9]. The TGI in [1], in test [2], in [3], in [4], in test [5] and in [6] was more than 100 µM in each case. Also, the TGI in [7], in test [8] and in [9] was more than 100 µM throughout.
As to `C[C@H]1CCC/C=C/[C@@H]2C[C@H](O)C[C@H]2[C@H](O)[C@@H](SC2OC(CO)C(O)C(O)C2O)CC(=O)O1` (stereo partly drawn), the GI50 in test [1] is 54.1 µM; in test [2], more than 100 µM; in test [3], more than 100 µM; in [4], 30.3 µM; in [5], more than 100 µM; in test [6], 98.9 µM. For the same compound, the GI50 in test [7] is 61.3 µM; in test [10], 47.9 µM; in [8], more than 100 µM; in test [9], more than 100 µM. Besides, the TGI in [1] is more than 100 µM; in [2] it was more than 100 µM; in test [3], more than 100 µM; in test [4], 68 µM; in [5], more than 100 µM; in [6], more than 100 µM. Besides, the TGI in test [7], in test [10], in test [8] and in [9] was more than 100 µM in each case.
Turning to `Cn1c(O)c(N=NC(N)=S)c2ccccc21`, the GI50 was 82.1 µM in test [1]; more than 100 µM in test [2]; 33.4 µM in test [3]; 88.3 µM in test [4]; 54.6 µM in [5]; 33.5 µM in test [6]. Moreover, the GI50 in test [7] is 95.9 µM; in test [10] it was more than 100 µM; in test [8], 40.9 µM; in test [9] it was 51.2 µM. The TGI in test [1], in test [2], in test [3], in [4], in test [5] and in [6] was more than 100 µM each time. Moreover, the TGI in test [7], in test [10], in [8] and in test [9] was more than 100 µM in each case.
Consider `O=c1[nH]cnc2nc(-c3ccc(N(CCCl)CCCl)cc3)[nH]c12`, for which the GI50 in [1] was 20.1 µM; in test [2] it was 4.76 µM; in [3] it was 22.8 µM; in test [4] it was 70.3 µM; in test [5], 6.46 µM; in [6], 10.7 µM. The GI50 in test [7] is 4.97 µM; in [10], 31.7 µM; in test [8] it was 12.6 µM; in [9], 2.58 µM. The TGI was more than 100 µM in test [1]; more than 100 µM in [2]; 79.6 µM in test [3]; more than 100 µM in test [4]; more than 100 µM in test [5]; 63.8 µM in test [6]. For the same compound, the TGI in test [7] was more than 100 µM; in [10], more than 100 µM; in test [8], more than 100 µM; in [9], 33.5 µM.
On to `CCC1CCC2c3c([nH]c4ccccc34)C3C(=O)N(c4ccc(OC)cc4)C(=O)C3C2C1` (stereo not drawn), for which the TGI is 36 µM in test [1]; more than 100 µM in test [2]; 41.9 µM in test [3]; more than 100 µM in test [4]; 82.4 µM in test [5]; more than 100 µM in test [6]. Moreover, the TGI in test [7], in [10], in test [8] and in [9] was more than 100 µM throughout.
As for `CN(CCN(C)C(=O)CCn1ccc(=O)[nH]c1=O)C(=O)CCn1ccc(=O)[nH]c1=O`, the TGI in [1], in test [2], in test [3], in test [4], in test [5] and in [6] was more than 100 µM in each case. For the same compound, the TGI in test [7], in [10], in [8] and in test [9] was more than 100 µM throughout.
`C[C@]12CC[C@H]3[C@@H](CCC4=C[C@@H](OC5OCC(OC6OC(CO)C(O)C(O)C6O)C(O)C5O)CC[C@@]43C=O)[C@@]1(O)CCC2C1=CC(=O)OC1` (stereo partly drawn): the TGI in test [1] was determined as 1.07 µM; in test [2], 1.38 µM; in test [3], 1.43 µM; in test [4], 13.9 µM; in [5], 9.23 µM; in [6], 1.84 µM. Besides, the TGI stood at 2.79 µM in [7], 1.08 µM in [10], 1.25 µM in test [8] and 2.25 µM in [9].
Turning to `CCC(=O)OC1=CN2C(=NC(c3ccc(N)cc3)=CC2c2cc(OC)c(OC)c(OC)c2)S1` (stereo not drawn), the GI50 is 4.14 µM in test [1]; 4.47 µM in test [2]; 2.47 µM in [3]; 3.48 µM in test [4]; 2.89 µM in test [5]; 4.79 µM in test [6]. The GI50 in test [7] is 4.18 µM; in [10] it was 5.82 µM; in test [8] it was 3.51 µM; in [9], 3.35 µM. Moreover, the TGI in test [1] stood at 31.9 µM; in test [2], 15.7 µM; in test [3] it was 5.56 µM; in test [4], 11.7 µM; in test [5] it was 10.7 µM; in test [6] it was 15.1 µM. In addition, the TGI in test [7] came out at 17.6 µM; in test [10] it was 35.6 µM; in test [8], 13.1 µM; in test [9], 18.2 µM.
Consider `Cc1ccc(C)c2c1CCc1cc3ccccc3nc1-2`, for which the TGI in [1], in test [2], in test [3], in test [4], in [5] and in test [6] was more than 100 µM each time. Moreover, the TGI in test [7], in [10], in test [8] and in test [9] was more than 100 µM in each case.
